Test results taken from patent publication US9937230B2, “Ophthalmic uses of toxin-based therapeutic peptides and pharmaceutical compositions thereof” (Kineta One, LLC, priority 2013, dated 2018).
Entries after “also recorded” stand apart in the source; their conditions may differ.

Assays:
[1] = tested on: rat model of experimental autoimmune anterior uveitis (EAAU); test: Melanin associated antigen (MAA) induced experimental autoimmune anterior uveitis (EAAU) model; format: in vivo
Description: One model used to evaluate the therapeutic potential of ShK-186 in autoimmune eye diseases such as uveitis was the melanin associated antigen (MAA) induced experimental autoimmune anterior uveitis (EAAU). In this model, male Lewis rats 5-10 week old (Charles River) are immunized with MAA emulsified in complete Freund's adjuvant (CFA) subcutaneously and also receive a single intraperitoneal injection of pertussis toxin (0.2 to 1 mcg/animal). Symptoms of disease begin to appear by day 10 and peak by day 18 post immunization. The animals typically recover by day 25.
Preparation of the MAA. MAA was prepared following the procedure outlined by Simpsom et al., Eye 11, 206-208, (1997) with some modifications. The iris and ciliary body structure were dissected from 25 fresh pigmented cow eyes. The tissue was cut into small pieces and then homogenized in cold PBS. The homogenate was spun at 4000 g for 10 minutes, washed three times with PBS and then put through a detergent extraction with 2% Triton X-100, rotating for 3 hours at room temperature. The resulting material was again spun and washed three times with PBS and subject to another detergent extraction this time using 2% SDS, rotating for 3 hours at 37° C. This material was washed three times with PBS followed by three washes with H2O and a final wash with 70% ethanol. The MAA pellet was placed under a vacuum for approximately 15 min, resulting in dried antigen material stored frozen at −20° C.
Preparation of MAA:CFA emulsions. For the emulsion used for the experiment whose results are shown in FIG. 4, 50 milligrams of MAA were resuspended in 3.8 mL of PBS, and after vortexing briefly the suspension, was sonicated for 30 seconds three times incubating on ice for 30 seconds in between. This slurry was passed through a 100 μm cell strainer, thicker material was pressed through using a syringe plunger. The protein content of the suspension was determined to be 3.27 mg/mL using a commercially available BCA kit (Pierce 23225), and was stored frozen at −20° C. until use. On the day of immunization (day 0), the stock MAA was thawed at room temperature and vortexed briefly before a working dilution of 600 μg/mL was made. This solution was then mixed drop wise 1:1 with CFA while vortexing, for a final antigen concentration of 300 μg/mL (or 30 μg per animal). Emulsions were allowed to vortex an additional 5 minutes before being loaded into syringes and passed through an 18 G emulsifying bridge until very thick. Emulsions were injected the same day, 50 μL subcutaneous to each footpad, 100 μL total per animal, according to group. FIGS. 4A-D show the pathology associated with this disease model and the effects of ShK-186 topical administration on the occurrence and severity of disease.
Eyes were given individual scores based on pupil function (miosis), iris structure, presence of cells in the anterior chamber, and presence of protein in the anterior chamber (flare). Scores were then converted into a composite clinical score for each day.
For this analysis, sections of eyes previously fixed in 10% formalin were scored for iris and ciliary body structure and the degree of inflammatory cell infiltration to the stroma of the iris and/or ciliary body and anterior chamber according to disease parameters outlined by Kim et al., supra (1997); this was done by an independent veterinary pathologist. In FIG. 4C (1.) a control healthy eye (10×) is shown; (2.) & (4.) show the eye from an animal treated with vehicle that was scored a 2 (10×, 40×); (3.) & (5.) show the eye from an animal treated three times daily with 0.1% ShK-186 for 8 days followed by 1% ShK-186 for 10 days which was given a histopathology score of 0 (10×, 40×).
Clinical observations were made of each animal using a slit lamp on day 13 post induction of EAAU by immunization with an adjuvanted MAA emulsion. […]

[2] = tested on: T cells or macrophages from dry-eye or uveitis patients; test: Ex vivo proliferation of T cells or macrophages during ex vivo activation; format: cell-based, human; details: [3H] thymidine incorporation or CFSE
Description: (§1) In order to carry out functional assays, PBMCs from uveitis or dry eye patients and healthy controls are isolated. In the first phase of the example, the cells are either tested shortly after […] without ex vivo stimulation or activated ex vivo with anti-CD3 and anti-CD28 antibodies or mitogens and then subjected to immunostaining and multicolor flow cytometry to study expression levels of Kv1.3 channel on the surface of TEM within the CD4 and CD8+ T-cell subsets. Cells isolated from patients are expected to be high in expression of Kv1.3 without stimulation ex vivo, but this expression could increase upon activation ex vivo. […] Cytokines including IFN-γ, IL-2, IL-4, IL-10, IL-17, IL-21, and IL-22, perforin, and granzyme B are detected by intracellular staining and flow cytometry in resting or activated cells in the presence or absence of toxin-based therapeutic peptide. Additionally, they can be quantitated by an assay such as multiplexing ELISA of collected supernatants. […] This reduction can be measured by quantification of [^3H] thymidine incorporation or the fluorescent dye CFSE, among other standard immunological methods.

[3] = tested on: human peripheral blood mononuclear cells (PBMCs) stimulated with thapsigargin; test: Suppression of thapsigargin-stimulated inflammatory cytokine production in human PBMCs; format: cell-based; details: FIG. 2
Description: (§2) This Example explores the ability of pharmaceutical compositions including toxin-based therapeutic peptides disclosed herein to reduce pro-inflammatory cytokine secretion caused by thapsigargin (Sigma-Aldrich, St. Louis, Mo., USA). Thapsigargin stimulates proinflammatory cytokine release by inhibiting the Ca2+ ion pump proteins of intracellular membranes in the sarcoplasmic reticulum and endoplasmic reticulum of microsomes. This inhibition results in a rapid release of Ca2+ stores and subsequent activation of plasma membrane calcium channels.
(§3) Preparation of primary blood cells. Whole blood and peripheral blood mononuclear cells (PBMCs) were used to test the suitability of an ShK-based therapeutic peptide as disclosed herein for treating a subject with an ophthalmic condition including dry eye. Whole blood was directly aliquoted to cell culture for experimental assays without any additional processing.
PBMCs were isolated from donor blood by density gradient centrifugation as follows. Blood was collected in collection tubes containing sodium heparin as an anticoagulant and a cell separation medium including a polyester gel and a density gradient liquid (BD Vacutainer CPT). The samples were centrifuged at 1500 RCF for 20 minutes at room temperature. The cell layer containing mononuclear cells and platelets lies just below the plasma layer and was collected into a separate 15 mL conical tube using a Pasteur Pipette. The cells were washed twice with PBS and pelleted by centrifugation to remove the supernatant. The purified PBMCs were resuspended in complete RPMI (cRPMI) cell culture media and plated to the appropriate density for the assay.
(§4) Treatment of primary blood cells. ShK-186 was serially diluted in cRPMI to 4× final concentration working stock. 50 μL of working stock was added to 6 wells of a 96-well cell culture plate per concentration of ShK-based peptide. 50 μL of cRPMI without ShK-based peptide was used as control treatment in positive control (no ShK-based peptide, thapsigargin stimulus) and in negative control (no ShK-based peptide, no thapsigargin stimulus) wells. 100 μL whole blood or 200,000 PBMCs in complete RPMI was added to each well of the 96-well cell culture plate. Cells with ShK-based peptide or media control were incubated at 37° C. and 5% CO2 for one hour. After one hour, 50 μL of 40 uM thapsigargin stimulus was added to all wells except for negative control wells which received 50 μL 0.4% DMSO to 0.1% final concentration. Cells were incubated for 48 hours.
(§5) Analysis of ShK-based peptide treated and thapsigargin stimulated cells. 48 hours after stimulation by thapsigargin, 96-well plates were centrifuged at 2000 RPM for 5 minutes. The supernatant was carefully transferred to a sterile 96-well plate for sample analysis. Cytokines were detected using specific antibodies conjugated to magnetic beads and a secondary antibody that reacts with Streptavidin/Phycoerythrin to produce a fluorescent signal. The bound beads were detected and quantified using the Magpix instrument (Luminex Corp., Austin, Tex., USA), although similar techniques as are known in the art may be used to measure protein production, such as for example an ELISA, using methods of detection including fluorescent and colorimetric methods.

[4] = Local (eye) and systemic (plasma) drug levels after topical ocular administration, Sprague-Dawley rats, ELISA; format: in vivo, rat
Protocol: Three female 6-8 week old Sprague-Dawley rats (Indianapolis, Ind., USA) were dosed three times per day with topically administered 10 μL of P6N (sodium phosphate (10 mM), sodium chloride (0.8%), and Polysorbate 20 (0.05%) at pH 6.0) on the left eye (LE) and 10 μL of 0.5% ShK-186 in P6N on the right eye (RE) for 21 days. Blood was collected at 3, 7, 12, 14, 17, and 21 days and processed to plasma. […] ShK-186 levels in collected samples were measured using a standard direct ELISA method.

[5] = tested on: human whole blood stimulated with thapsigargin; test: Suppression of thapsigargin-stimulated inflammatory cytokine production in human whole blood; format: cell-based; details: FIG. 1
Description: as §2, §3, §4, §5

[6] = tested on: unstimulated or activated T cells or macrophages from dry-eye or uveitis patients; test: Ex vivo cytokine expression in T cells or macrophages from dry eye or uveitis patients; format: cell-based, human; details: ex vivo addition of ShK-186, intracellular staining/flow cytometry or multiplexing ELISA
Description: as §1

[7] = day 18 post immunization, 0.1% then 1% ShK-186 topically
[8] = PBMCs treated with ShK-186 one hour prior to thapsigargin, supernatant 48 hours after stimulation
[9] = PBMCs, thapsigargin stimulation
[10] = whole blood treated with ShK-186 one hour prior to thapsigargin, supernatant 48 hours after stimulation
[11] = whole blood, thapsigargin stimulation

(L-PhosphoTyr)-AEEAc-RSCIDTIPKSRCTAFQCKHSMKYRLSFCRKTCGTC-amide [ShK-186]
gross pathology ([1]; ShK-186 topical administration versus vehicle (P6N), FIG. 4B): reduced | composite clinical score of animal 4-8 ([1]; day 18 post immunization, 0.1% ShK-186 for 9 days then 1% for 10 days topically, vehicle animal 3-2 scored 13): 0 | cells in the anterior chamber score of animal 4-8 [1, 7]: 0 | iris vessels and structure score of animal 4-8 [1, 7]: 0 | protein in the anterior chamber (flare) score of animal 4-8 [1, 7]: 0 | pupil score of animal 4-8 [1, 7]: 0 | histopathology ([1]; eyes collected day 19 post immunization, H&E sections, FIG. 4C): reduces | composite clinical score versus vehicle ([1]; slit lamp, days 11, 13, 15, 18 post induction, topical three times daily 0.1% day 0-8 and 1% ShK-186 day 9-18, N=8 rats/16 eyes): significantly lower | histopathology score of an eye from a treated animal ([1]; three times daily 0.1% ShK-186 followed by 1% ShK-186 for 10 days, vehicle eye scored 2): 0 | ex vivo proliferation of T cells or macrophages [2]: significantly reduces | suppression of IFN-γ level [3, 8]: suppressed; also recorded: dose-dependent manner | suppression of IL-2 level [3, 8]: suppressed; also recorded: dose-dependent manner | suppression of IL-4 level [3, 8]: suppressed; also recorded: dose-dependent manner | suppression of IL-17 level [3, 8]: suppressed; also recorded: dose-dependent manner | IC50, IFN-γ suppression [3, 9]: picomolar range | IC50, IL-2 suppression [3, 9]: picomolar range | IC50, IL-4 suppression [3, 9]: picomolar range | IC50, IL-17 suppression [3, 9]: picomolar range | ShK-186 in plasma (systemic exposure) ([4]; 0.5% ShK-186 topically to right eye three times per day for 21 days): no detectable and not | ShK-186 concentration in aqueous fluid of the treated right eye (RE) ([4]; 10 μL of 0.5% ShK-186 in P6N topically three times per day for 21 days, samples at 21 days): significant concentrations | ShK-186 in samples from the untreated left eye (LE) ([4]; right eye dosed 0.5% ShK-186 three times per day for 21 days, left eye vehicle): no detectable | suppression of IFN-γ level [5, 10]: dose-dependent manner; also recorded: suppressed | suppression of IL-2 level [5, 10]: dose-dependent manner; also recorded: suppressed | suppression of IL-4 level [5, 10]: dose-dependent manner; also recorded: suppressed | suppression of IL-17 level [5, 10]: dose-dependent manner; also recorded: suppressed | IC50, IFN-γ suppression [5, 11]: picomolar range | IC50, IL-2 suppression [5, 11]: picomolar range | IC50, IL-4 suppression [5, 11]: picomolar range | IC50, IL-17 suppression [5, 11]: picomolar range | expression of cytokines (IFN-γ, IL-2, IL-4, IL-10, IL-17, IL-21, IL-22, perforin, granzyme B) [6]: significantly reduces

(L-Tyr)-AEEAc-RSCIDTIPKSRCTAFQCKHSMKYRLSFCRKTCGTC-amide [ShK-198]
clinical score (cells in the anterior chamber; protein in the anterior chamber or flare) ([1]; slit lamp day 13 post induction, 1% ShK-198 topically three times daily versus P6N vehicle, N=10 rats/20 eyes): reduces
